The source of these data is ChEMBL document CHEMBL1770065, “Discovery of a clinical candidate from the structurally unique dioxa-bicyclo[3.2.1]octane class of sodium-dependent glucose cotransporter 2 inhibitors” (J Med Chem, 2011).

Data set [1] in a line: Volume of distribution at steady state in Sprague-Dawley rat at 2 mg/kg, iv. The format is ADME, organism-based. More on the design: dose 2 mg/kg, route intravenous. The following applies: in vivo, read-out: Vdss.
The target in data set [2] is T1, Organic anion transporter 3 (Homo sapiens, UniProt Q8TCC7).
T1 sequence (Q8TCC7 whole entry): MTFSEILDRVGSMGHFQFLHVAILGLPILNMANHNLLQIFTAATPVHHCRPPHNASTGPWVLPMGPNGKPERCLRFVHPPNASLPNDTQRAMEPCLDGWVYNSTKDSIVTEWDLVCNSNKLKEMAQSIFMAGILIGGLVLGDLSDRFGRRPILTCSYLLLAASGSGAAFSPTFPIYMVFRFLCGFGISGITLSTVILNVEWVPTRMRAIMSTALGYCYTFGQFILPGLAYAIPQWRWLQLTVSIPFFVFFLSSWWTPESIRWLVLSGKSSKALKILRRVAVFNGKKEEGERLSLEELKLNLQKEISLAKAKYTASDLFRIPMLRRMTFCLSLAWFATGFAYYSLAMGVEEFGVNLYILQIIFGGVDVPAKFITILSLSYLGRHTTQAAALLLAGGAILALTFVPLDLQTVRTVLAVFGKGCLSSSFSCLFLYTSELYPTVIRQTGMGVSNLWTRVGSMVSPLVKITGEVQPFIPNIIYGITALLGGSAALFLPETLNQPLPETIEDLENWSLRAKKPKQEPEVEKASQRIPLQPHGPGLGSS
The experiment in a line: Inhibition of human OAT3.

Data set [3] addresses T2, Solute carrier family 22 member 2 (Homo sapiens, UniProt O15244).
T2 sequence (O15244 whole entry): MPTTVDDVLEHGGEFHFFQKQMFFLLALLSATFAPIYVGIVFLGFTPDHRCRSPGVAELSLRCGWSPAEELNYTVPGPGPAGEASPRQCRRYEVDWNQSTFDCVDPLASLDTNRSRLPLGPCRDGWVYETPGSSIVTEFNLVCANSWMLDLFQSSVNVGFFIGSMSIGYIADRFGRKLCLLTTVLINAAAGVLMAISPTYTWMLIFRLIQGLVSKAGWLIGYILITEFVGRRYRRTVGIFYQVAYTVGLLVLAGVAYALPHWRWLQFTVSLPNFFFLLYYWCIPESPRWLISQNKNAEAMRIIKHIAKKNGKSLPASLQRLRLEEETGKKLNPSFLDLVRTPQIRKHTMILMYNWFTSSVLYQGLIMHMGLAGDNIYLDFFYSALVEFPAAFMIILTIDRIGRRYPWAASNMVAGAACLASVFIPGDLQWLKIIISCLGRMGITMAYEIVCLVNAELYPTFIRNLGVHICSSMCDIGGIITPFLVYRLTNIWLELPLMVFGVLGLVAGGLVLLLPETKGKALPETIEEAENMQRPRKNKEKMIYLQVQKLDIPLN
The experiment in a line: Inhibition of human OCT2.

Data set [4] in a line: Cmax in Sprague-Dawley rat at 5 mg/kg, po. In kind it is ADME, organism-based. The arrangement: dose 5 mg/kg, route oral. As to conditions: in vivo; call rule not given here.
The nature of data set [5]: Tmax in Sprague-Dawley rat at 5 mg/kg, po. The format is ADME, organism-based. More on the design: dose 5 mg/kg, route oral. The following applies: in vivo.
Data set [6] in a line: Oral bioavailability in Sprague-Dawley rat at 5 mg/kg. The format is ADME, organism-based. The following applies: in vivo.
The target in data set [7] is T3, Solute carrier family 22 member 3 (Rattus norvegicus, UniProt O88446).
T3 sequence (O88446 whole entry): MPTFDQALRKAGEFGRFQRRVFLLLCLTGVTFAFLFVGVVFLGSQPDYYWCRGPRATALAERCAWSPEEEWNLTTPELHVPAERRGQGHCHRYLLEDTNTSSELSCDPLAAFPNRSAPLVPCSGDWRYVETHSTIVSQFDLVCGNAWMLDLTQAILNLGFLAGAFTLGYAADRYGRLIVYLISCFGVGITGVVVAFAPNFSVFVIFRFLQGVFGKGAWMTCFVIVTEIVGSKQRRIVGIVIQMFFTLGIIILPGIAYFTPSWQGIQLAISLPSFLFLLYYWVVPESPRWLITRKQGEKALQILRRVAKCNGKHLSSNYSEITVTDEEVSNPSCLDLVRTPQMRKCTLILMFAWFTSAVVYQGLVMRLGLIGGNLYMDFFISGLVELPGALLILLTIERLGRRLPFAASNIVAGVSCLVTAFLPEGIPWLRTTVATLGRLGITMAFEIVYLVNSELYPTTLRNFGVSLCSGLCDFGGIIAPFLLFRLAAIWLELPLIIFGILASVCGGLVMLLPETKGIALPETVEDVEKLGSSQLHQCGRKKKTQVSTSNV
Description: Inhibition of rat OCT3 expressed in HEK293 cells. In kind it is cell-based.

Data set [8] deals with Rattus norvegicus. The experiment in a line: Antidiabetic activity in po dosed Sprague-Dawley rat assessed as increase of urinary glucose excretion after 24 hrs. The following applies: Urine. The format is functional, organism-based.
Data set [9] relates to Rattus norvegicus. The experiment in a line: Antidiabetic activity in Sprague-Dawley rat assessed as increase of urinary glucose excretion assessed per 200 gram of body weight at 30 mg/kg, po after 24 hrs. The format is functional, Urine.
The test system of data set [10] is Rattus norvegicus. The experiment in a line: Average free plasma concentration in Sprague-Dawley rat at 30 mg/kg, po after 24 hrs. The format is ADME, organism-based. More on the design: dose 30 mg/kg, route oral. The following applies: in vivo.
Data set [11] deals with T4, Sodium/glucose cotransporter 2 (Rattus norvegicus, UniProt P53792).
T4 sequence (P53792 whole entry): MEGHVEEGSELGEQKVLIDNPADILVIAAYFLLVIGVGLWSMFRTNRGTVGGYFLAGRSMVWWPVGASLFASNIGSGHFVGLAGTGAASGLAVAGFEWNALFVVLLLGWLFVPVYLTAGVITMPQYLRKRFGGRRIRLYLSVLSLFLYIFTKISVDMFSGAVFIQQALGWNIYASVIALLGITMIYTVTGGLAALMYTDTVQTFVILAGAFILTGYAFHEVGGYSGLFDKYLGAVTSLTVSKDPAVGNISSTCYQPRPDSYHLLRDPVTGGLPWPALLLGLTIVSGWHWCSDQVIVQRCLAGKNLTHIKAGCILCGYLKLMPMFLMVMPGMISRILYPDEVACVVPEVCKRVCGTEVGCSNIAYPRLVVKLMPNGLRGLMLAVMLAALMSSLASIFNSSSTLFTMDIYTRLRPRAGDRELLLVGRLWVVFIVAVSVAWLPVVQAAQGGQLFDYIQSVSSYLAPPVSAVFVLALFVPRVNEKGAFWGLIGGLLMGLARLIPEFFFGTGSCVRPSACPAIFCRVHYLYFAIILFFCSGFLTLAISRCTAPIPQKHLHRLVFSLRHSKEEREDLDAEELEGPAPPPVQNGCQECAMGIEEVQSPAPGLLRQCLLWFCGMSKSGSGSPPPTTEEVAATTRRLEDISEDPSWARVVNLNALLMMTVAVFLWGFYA
Description: Inhibition of rat SGLT2.

Data set [12] has as its system Rattus norvegicus. The experiment in a line: Inhibition of SGLT2 in po dosed Sprague-Dawley rat after 24 hrs. In kind it is functional, organism-based.
Data set [13] concerns Plasma. The experiment in a line: Fraction unbound in human plasma at 1000 ng/mL by equilibrium dialysis method. In kind it is ADME, cell-free. A general note: In equilibrium dialysis free small molecules cross a membrane that holds back macromolecules.
Data set [14] has as its system Plasma. Description: Fraction unbound in rat plasma at 1000 ng/mL by equilibrium dialysis method. In kind it is ADME, cell-free.
The nature of data set [15]: Apparent intrinsic clearance in human liver microsomes assessed per mg of protein. In kind it is ADME, Microsome. (In general: Liver microsomes are vesicles of endoplasmic reticulum, rich in cytochrome P450 enzymes.)
Data set [16] can be described thus: Apparent intrinsic clearance in human hepatocytes assessed per million of cells. The format is ADME, cell-based, Liver, Hepatocyte.

SMILES strings stand for the structures. pIC50: −log10 of the molar value.

As for `CCOc1ccc(Cc2cc([C@]34OC[C@](CO)(O3)[C@@H](O)[C@H](O)[C@H]4O)ccc2Cl)cc1` [ERTUGLIFLOZIN], the Vd in data set [1] was found to be 1.13 L/kg. For the same compound, the “inhibition (INH)” value in data set [2], in data set [3] and in data set [7] was “Not Active” throughout. In addition, the Cmax (as a rule, the maximum level reached in the sampled fluid or tissue) in data set [4] was 1940 ng/mL. In data set [5], the Tmax (usually the time from dosing to the highest level) came out at 1 h. Also, the bioavailability (commonly the share of a dose that reaches the circulation, judged against a reference dose that is usually intravenous) in [6] stood at 69%. For the same compound, the Activity entry in [8] was “Dose-dependent effect”; in data set [9], 2554 mg. For the same compound, the Cp in [10] was 408 nM. The pIC50 – broadly, the IC50 on a negative log10 scale, so that one unit is a factor of ten – in data set [11] is 8.94; in [12], 8.74. Besides, the Fu came to 6.4% in data set [13] and 4% in data set [14]. Moreover, the intrinsic clearance (microsomal CLint) (in general, a measure of how fast metabolising enzymes remove a compound, apart from limits set by blood flow) in data set [15] was 12 µL/min/mg. Besides, the hepatocyte CLint – broadly, a measure of how fast metabolising enzymes remove a compound, apart from limits set by blood flow – in [16] worked out at 4.5 µL/min/1e6 cells.
